The values below come from publication PMC6965684, “Characterization of binding, functional activity, and contractile responses of the selective 5‐HT1F receptor agonist lasmiditan” (British Journal of Pharmacology, 2019).

Each structure is given as a SMILES string. Where a name gives a salt, the structure may show the parent alone. Read-outs that look alike come from different tables or passages of the source. Some results are limits rather than exact numbers.

For test [1], the target named is T1, 5-HT1D receptor (Homo sapiens, UniProt P28221).
T1 construct: gene HTR1D; full-length human recombinant receptor in CHO-K1 cells (Ogeda); crude membranes
T1 sequence (P28221 whole entry): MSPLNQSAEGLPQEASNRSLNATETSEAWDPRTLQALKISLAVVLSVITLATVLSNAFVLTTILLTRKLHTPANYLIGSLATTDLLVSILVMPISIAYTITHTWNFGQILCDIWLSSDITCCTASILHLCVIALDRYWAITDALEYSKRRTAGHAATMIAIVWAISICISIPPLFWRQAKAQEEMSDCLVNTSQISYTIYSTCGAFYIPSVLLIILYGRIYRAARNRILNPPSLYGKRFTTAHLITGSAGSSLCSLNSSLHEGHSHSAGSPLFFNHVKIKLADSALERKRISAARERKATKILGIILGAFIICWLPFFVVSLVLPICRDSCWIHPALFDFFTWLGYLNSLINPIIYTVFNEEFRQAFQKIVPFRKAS
The test can be described thus: radioligand competition, CHO-K1 membranes. The class given is binding. The settings on record: read-out: 5-HT1D / pKi (converted). An excerpt:
radioligand competition, CHO-K1 membranes on 5-HT1D receptor

Test [2] addresses T2, 5-HT1F receptor (Homo sapiens, UniProt P30939).
T2 construct: gene HTR1F; full-length human recombinant receptor in CHO-K1 cells (Ogeda)
T2 sequence (P30939 1-366): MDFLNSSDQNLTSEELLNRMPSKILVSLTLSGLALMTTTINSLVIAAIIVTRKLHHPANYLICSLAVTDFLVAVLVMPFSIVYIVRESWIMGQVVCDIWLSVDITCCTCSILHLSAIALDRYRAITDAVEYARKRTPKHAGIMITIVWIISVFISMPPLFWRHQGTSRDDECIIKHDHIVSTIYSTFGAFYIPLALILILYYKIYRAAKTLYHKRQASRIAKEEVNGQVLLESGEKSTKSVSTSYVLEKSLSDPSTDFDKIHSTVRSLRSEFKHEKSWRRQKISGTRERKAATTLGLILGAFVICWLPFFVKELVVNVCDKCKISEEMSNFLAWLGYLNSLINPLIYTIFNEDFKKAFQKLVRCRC
Nature of the test: cAMP HTRF, stably transfected CHO-K1 cells. The test is classed as cell-based.

Test [3] concerns the target T3, 5-HT2B receptor (Homo sapiens, UniProt P41595).
T3 construct: gene HTR2B; full-length human recombinant receptor in CHO-K1 cells (Ogeda); crude membranes
The test can be described thus: radioligand competition, CHO-K1 membranes. The settings on record: for Ki: read-out: 5-HT2B / pKi (converted). The test is classed as binding. An excerpt:
radioligand competition, CHO-K1 membranes on 5-HT2B receptor

Test [4] deals with T1, 5-HT1D receptor. Nature of the test: biochemical. The test is classed as CHO-K1 membranes. Further details: radioligand competition binding on cell membranes, filtration and TopCount scintillation counting. The settings on record: radioligand displacement; read-out: 5‐HT1D / pIC50 (converted). As to the method:
(§1) Competition binding was performed in duplicate in the wells of a 96‐well plate containing binding buffer (optimized for each receptor), cell membrane extracts (approximately 20,000 cells distributed in the 96‐well plate), radiotracer, and test agonist. Non‐specific binding was determined by co‐incubation with 200‐fold excess of competitor. Cells were incubated and exposed to varying concentrations (1 pM to 10 μM) of a range of displacer agonists (see below). The samples were incubated in a final volume of 0.1 ml and then filtered over Unifilter plates (Perkin Elmer, Massachusetts, USA) pretreated for 2 hr to limit tracer non‐specific binding. Filters were washed five times with 0.5 ml of ice‐cold washing buffer (tris 50 mM pH 7.4) and 50 μl of Microscint 20 (Perkin Elmer) were added to each filter. The plates were incubated 15 min at room temperature on an orbital shaker and then counted with a TopCount™ (Perkin Elmer) for 1 min per well. […] Additionally, the reference values obtained were compared to historical values obtained from the same receptor and used to validate the experimental session. […] For the new assays developed in this study (i.e., 5‐ht1E receptor), the two independent pIC50 determined must be concordant with a 1 log unit interval for the assays to be validated.

Test [5] addresses T3, 5-HT2B receptor. The test can be described thus: biochemical. The class given is CHO-K1 membranes. Also on record: radioligand competition binding on cell membranes, filtration and TopCount scintillation counting. The conditions noted are these: radioligand displacement; read-out: 5‐HT2B / pIC50 (converted). As to the method:
as §1

Test [6] has as its target T4, 5-HT1B receptor (Homo sapiens, UniProt P28222).
T4 construct: gene HTR1B; full-length human recombinant receptor in CHO-K1 cells (Ogeda); crude membranes
Nature of the test: cell-based. Further details: species or system CHO-K1; cAMP HTRF agonist assay, Gi coupled receptors, inhibition of stimulated cAMP. As to the method: (§2) Concentration–response curves were performed in parallel with the agonists. […] After addition of the lysis buffer and 1‐hr incubation, cAMP concentrations were estimated according to the manufacturer specification with the HTRF kit (Cisbio International, Codelet, France). In brief, increasing concentrations of agonists were added to stably transfected cells in buffer in an Optiplate (PerkinElmer Life Sciences, Massachusetts, USA). The plates were incubated, and cells were then lysed by the addition of HTRF reagents (cAMP‐Cryptate and anti‐cAMP‐d2 reagents) and diluted in lysis buffer, followed by incubation at room temperature. […] Additionally, the reference values obtained were compared to historical values obtained from the same receptor and used to validate the experimental session. […] For the new assays developed in this study (i.e., 5‐ht1E receptor), the two independent pIC50 determined must be concordant with a 1 log unit interval for the assays to be validated.

Test [7] deals with T5, 5-ht1E receptor (Homo sapiens, UniProt P28566).
T5 construct: gene HTR1E; full-length human recombinant receptor in CHO-K1 cells (Ogeda); crude membranes
T5 sequence (P28566 whole entry): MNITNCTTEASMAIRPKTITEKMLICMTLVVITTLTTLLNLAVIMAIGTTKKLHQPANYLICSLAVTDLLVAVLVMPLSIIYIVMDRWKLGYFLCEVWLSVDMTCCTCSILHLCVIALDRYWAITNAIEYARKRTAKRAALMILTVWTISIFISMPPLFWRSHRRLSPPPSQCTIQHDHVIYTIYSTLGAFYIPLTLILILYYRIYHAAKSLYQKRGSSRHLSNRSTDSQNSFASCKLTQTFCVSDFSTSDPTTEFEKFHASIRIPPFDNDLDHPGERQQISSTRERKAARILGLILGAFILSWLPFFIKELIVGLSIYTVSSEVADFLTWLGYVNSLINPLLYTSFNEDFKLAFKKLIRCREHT
Nature of the test: cell-based. The conditions noted are these: cAMP. Also on record: species or system CHO-K1; cAMP HTRF agonist assay, Gi coupled receptors, inhibition of stimulated cAMP. The procedure: as §2

For test [8], the target named is T3, 5-HT2B receptor. The test can be described thus: cell-based. Also on record: species or system CHO-K1; IPOne HTRF agonist assay, IP1 accumulation in adherent transfected cells. The procedure:
The assay was performed on adherent cells. For agonist testing, the medium was removed and 20 μl of assay buffer plus 20 μl of the studied agonist or the reference agonist were added in each well. The plate was incubated for 60 min at 37°C with 5% CO2. IP1‐D2 reagent and anti‐IP1 cryptate reagents were dispensed in the wells, and IP1 concentrations were then measured following the manufacturer instructions (IPOne HTRF assay kit; Cisbio International, Codolet, France). In brief, increasing concentrations of agonists were added to stably transfected cells in buffer in an Optiplate (PerkinElmer Life Sciences). The plates were incubated, and cells were then lysed by the addition of HTRF reagents (IP1‐D2 reagent and anti‐IP1 cryptate reagents) and diluted in lysis buffer, followed by incubation at room temperature. […] Additionally, the reference values obtained were compared to historical values obtained from the same receptor and used to validate the experimental session. […] For the new assays developed in this study (i.e., 5‐ht1E receptor), the two independent pIC50 determined must be concordant with a 1 log unit interval for the assays to be validated.

Test [9] has as its target T5, 5-ht1E receptor. Nature of the test: biochemical. The test is classed as CHO-K1 membranes. The conditions noted are these: radioligand displacement; read-out: 5‐ht1E / pIC50 (converted). Further details: radioligand competition binding on cell membranes, filtration and TopCount scintillation counting. The procedure: as §1
Where [10] appears, read: read-out: 5-HT1F / cAMP (converted).
Setting [11] is: cAMP, read-out: 5‐HT1B / cAMP (converted).
[12] abbreviates: IP, read-out: 5‐HT2B / IP (converted).

T4 sequence (P28222 whole entry): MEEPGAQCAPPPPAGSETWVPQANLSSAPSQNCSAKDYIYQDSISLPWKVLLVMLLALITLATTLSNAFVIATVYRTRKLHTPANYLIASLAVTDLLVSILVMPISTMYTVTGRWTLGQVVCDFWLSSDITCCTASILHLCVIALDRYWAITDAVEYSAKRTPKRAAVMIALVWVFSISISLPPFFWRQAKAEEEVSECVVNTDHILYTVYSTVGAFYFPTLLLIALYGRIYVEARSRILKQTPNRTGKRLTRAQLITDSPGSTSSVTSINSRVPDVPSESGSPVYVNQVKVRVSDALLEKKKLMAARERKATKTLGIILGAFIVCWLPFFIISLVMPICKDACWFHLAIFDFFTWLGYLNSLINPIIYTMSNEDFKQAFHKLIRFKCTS
T3 sequence (P41595 whole entry): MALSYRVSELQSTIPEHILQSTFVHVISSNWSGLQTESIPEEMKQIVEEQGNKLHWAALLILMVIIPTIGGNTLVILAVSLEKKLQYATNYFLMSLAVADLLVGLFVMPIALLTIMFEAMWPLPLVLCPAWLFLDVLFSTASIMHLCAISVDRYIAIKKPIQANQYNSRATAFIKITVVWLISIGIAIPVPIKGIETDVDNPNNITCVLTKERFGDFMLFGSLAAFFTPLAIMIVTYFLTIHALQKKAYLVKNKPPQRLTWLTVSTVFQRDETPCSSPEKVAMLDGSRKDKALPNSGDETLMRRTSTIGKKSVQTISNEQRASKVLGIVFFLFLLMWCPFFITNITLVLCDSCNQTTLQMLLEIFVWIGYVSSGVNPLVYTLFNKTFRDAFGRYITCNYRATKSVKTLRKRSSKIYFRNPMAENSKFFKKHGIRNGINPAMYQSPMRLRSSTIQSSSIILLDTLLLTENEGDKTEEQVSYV

`CNS(=O)(=O)CCc1ccc2[nH]cc(C3CCN(C)CC3)c2c1` [Naratriptan hydrochloride]: the Ki in [1] is 0.501 nM. The EC50 is 4.17 nM in [2] (setting [10]), 8.91 nM in [6] (setting [11]), 17.8 nM in [7] and over 10000 nM in [8] (setting [12]). Further, the “5-HT2B / pKi” value in test [3] (radioligand listed in supplement Table S1, unreliable (pIC50 printed as <[…])) is reported as 5.08 -log M. The IC50 in [4] was 2.4 nM; in test [5], over 10000 nM.

In the case of `CNS(=O)(=O)Cc1ccc2[nH]cc(CCCN3CCN(c4ncncc4OC)CC3)c2c1` [Avitriptan fumarate], the Ki in test [1] is 0.776 nM; in test [3], 1150 nM. Further, the EC50 is 81.3 nM in test [2] (setting [10]), 2.69 nM in [6] (setting [11]), 3020 nM in [7] and 389 nM in [8] (setting [12]). For the same molecule, the IC50 in test [4] was 3.8 nM; in [5], 1860 nM; in test [9], 7080 nM.

For `CN(C)[C@@H]1CCc2[nH]c3ccc(NC(=O)c4ccc(F)cc4)cc3c2C1` [LY344864 hydrochloride], the IC50 in test [5] was 4900 nM. Moreover, the EC50 in test [8] (setting [12]) was over 10000 nM.

Regarding `CN1CCC[C@@H]1Cc1c[nH]c2ccc(CCS(=O)(=O)c3ccccc3)cc12` [Eletriptan hydrobromide], the results for the Ki in test [1] and in test [3] were 0.102 nM and 447 nM, respectively. Also, the EC50 in [2] (setting [10]) was 7.41 nM; in test [6] (setting [11]) it was 10 nM; in [7], 29.5 nM; in test [8] (setting [12]), 155 nM. Further, the figures for the IC50 in [4], in test [5] and in test [9] were 0.49 nM, 724 nM and 123 nM, respectively.

Turning to `N#Cc1ccc(N2CCN(C(=O)COc3ccc4[nH]cc(CCN)c4c3)CC2)cc1` [Donitriptan hydrochloride], the Ki was 0.138 nM in test [1] and 813 nM in test [3]. For the same molecule, the EC50 was over 10000 nM in [2] (read-out: 5-HT1A / cAMP), 0.11 nM in test [6], over 10000 nM in test [7] and 24.5 nM in [8]. Besides, the IC50 in test [4] is 0.661 nM; in test [5] it was 1320 nM; in test [9], 3390 nM.

For `CNC1CCc2[nH]c3ccc(C(N)=O)cc3c2C1` (racemic) [Frovatriptan racemate], in [9], the IC50 is over 10000 nM. The EC50 in [7] is 9120 nM.
